Assay results published in patent publication US20120232073A1, “FUSED BICYCLIC PYRIMIDINE DERIVATIVES AND METHODS OF USE THEREOF” (priority 2009, published 2012).

Molecular target: T1, human GPR119 (Homo sapiens, UniProt Q8TDV5)
T1 construct: expressed in transfected cells; host or cells: HEK293
T1 sequence (Q8TDV5 1-335): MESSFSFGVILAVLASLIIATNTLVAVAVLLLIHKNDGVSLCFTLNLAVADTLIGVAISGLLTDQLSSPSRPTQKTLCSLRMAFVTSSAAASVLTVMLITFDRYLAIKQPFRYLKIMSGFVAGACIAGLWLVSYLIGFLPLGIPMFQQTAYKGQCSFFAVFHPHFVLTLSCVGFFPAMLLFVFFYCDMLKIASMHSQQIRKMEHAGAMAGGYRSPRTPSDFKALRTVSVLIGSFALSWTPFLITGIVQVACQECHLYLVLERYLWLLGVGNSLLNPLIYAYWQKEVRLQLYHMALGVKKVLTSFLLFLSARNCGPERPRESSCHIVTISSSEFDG
Experiment: cAMP assay (LANCE cAMP kit), activation of GPR119
Format: cell-based
Settings: HEK293 cells expressing human GPR119; increase in cAMP levels
Description: The ability of illustrative compounds of the invention to activate GPR119 and stimulate increases in cAMP levels was determined using the LANCE™ cAMP kit (Perkin Elmer). HEK293 cells expressing human GPR119 were maintained in culture flasks at 37° C./5% CO2 in DMEM containing 10% fetal bovine serum, 100 U/ml Pen/Strep, and 0.5 mg/ml geneticin. The media was changed to Optimem and cells were incubated overnight at 37° C./5% CO2. The Optimem was then aspirated and the cells were removed from the flasks using room temperature Hank's balanced saline solution (HBSS). The cells were pelleted using centrifugation (1300 rpm, 7 minutes, room temperature), then resuspended in stimulation buffer (HBSS, 0.1% BSA, 5 mM HEPES, 15 μM RO-20) at 2.5×10^6 cells/mL. Alexa Fluor 647-anti cAMP antibody (1:100) was then added to the cell suspension and incubated for 30 minutes. A representative Fused Bicyclic Pyrimidine Derivative (6 μl at 2× concentration) in stimulation buffer containing 2% DMSO were then added to white 384 well Matrix plates. Cell suspension mix (6 μl) was added to each well and incubated with the Fused Bicyclic Pyrimidine Derivative for 30 minutes. A cAMP standard curve was also created in each assay according to the kit protocol. Standard concentrations of cAMP in stimulation buffer (6 μl) were added to white 384 well plates. Subsequently, 6 μl of 1:100 anti-cAMP antibody was added to each well. Following the 30 minute incubation period, 12 μl of detection mix (included in kit) was added to all wells and incubated for 2-3 hours at room temperature. Fluorescence was detected on the plates using an Envision instrument. The level of cAMP in each well is determined by extrapolation from the cAMP standard curve.

First: CC1(OC(=O)N2CC3COCC(C2)C3Oc2ncnc3c2ncn3-c2ccc(C#N)cc2F)CC1 (stereo not drawn) [Compound 35]
Second: CC1(OC(=O)N2CC3COCC(C2)C3Oc2ncnc3c2ncn3-c2ccc(C#N)cc2Cl)CC1 (stereo not drawn) [Compound 43]
The EC50 of the first is lower: 50 to 100 nM for the first, 100 to 500 nM for the second. The first is the more potent here.

`CC1OC(C)C2CN(C(=O)OC3(C)CC3)CC1C2Oc1ncnc2c1cnn2-c1ccc(C#N)cc1F` (stereo not drawn) [Compound 38] and `CC1(OC(=O)N2CC3COCC(C2)C3Oc2ncnc3c2cnn3-c2ccc(C#N)cc2F)CC1` (stereo not drawn) [Compound 37] cannot be ordered by EC50: less than 50 nM for the first, less than 50 nM for the second.

`CCCc1cnc(N2CC3COCC(C2)C3Oc2ncnc3c2ccn3-c2ccc(S(C)(=O)=O)cc2F)nc1` (stereo not drawn) [Compound 31] and `CS(=O)(=O)c1ccc(-n2ccc3c(OC4C5COCC4CN(c4ncc(F)cn4)C5)ncnc32)c(F)c1` (stereo not drawn) [Compound 30] fall in the same range of EC50: 50 to 100 nM for the first, 50 to 100 nM for the second.

First: CC1(OC(=O)N2CC3COCC(C2)C3Oc2ncnc3c2cnn3-c2ccc(F)cc2F)CC1 (stereo not drawn) [Compound 46]
Second: CC1(OC(=O)N2CC3COCC(C2)C3Oc2ncnc3c2cnn3-c2ccc(C#N)cc2F)CC1 (stereo not drawn) [Compound 36]
The EC50 of the first is higher: 100 to 500 nM for the first, less than 50 nM for the second. The second is the more potent here.

`CC1(OC(=O)N2CC3COCC(C2)C3Oc2ncnc3c2ccn3-c2ccc(C#N)cc2F)CC1` (stereo not drawn) [Compound 5] and `CC1(OC(=O)N2CC3COCC(C2)C3Oc2ncnc3c2ccn3-c2ccc(F)cc2F)CC1` (stereo not drawn) [Compound 8] cannot be ordered by EC50: less than 50 nM for the first, less than 50 nM for the second.

First: CC(C)(C)OC(=O)N1CC2COCC(C1)C2Oc1ncnc2c1CCN2c1ccc(F)cc1F (stereo not drawn) [Compound 10]
Second: CC1(OC(=O)N2CC3COCC(C2)C3Oc2ncnc3c2CCN3c2ccc(F)cc2F)CC1 (stereo not drawn) [Compound 11]
The EC50 of the first is higher: 100 to 500 nM for the first, less than 50 nM for the second. The second is the more potent here.

`CC(C)(C)OC(=O)N1CC2COCC(C1)C2Oc1ncnc2c1ccn2-c1ccc(F)cc1F` (stereo not drawn) [Compound 7] and `CC(C)(C)OC(=O)N1CC2COCC(C1)C2Oc1ncnc2c1ccn2-c1ccc(C#N)cc1F` (stereo not drawn) [Compound 1] cannot be ordered by EC50: less than 50 nM for the first, less than 50 nM for the second.

`Cn1cc(-c2ccc(-n3ncc4c(OC5C6COCC5CN(C(=O)OC5(C)CC5)C6)ncnc43)c(F)c2)cn1` (stereo not drawn) [Compound 48] and `CC1(OC(=O)N2CC3COCC(C2)C3Oc2ncnc3c2cnn3-c2ccc(-c3ncco3)cc2F)CC1` (stereo not drawn) [Compound 49] fall in the same range of EC50: 100 to 500 nM for the first, 100 to 500 nM for the second.

First: Cc1c(F)ccc(-n2ccc3c(OC4C5COCC4CN(C(=O)OC4(C)CC4)C5)ncnc32)c1F (stereo not drawn) [Compound 18]
Second: Cc1c(F)ccc(-n2ccc3c(OC4C5COCC4CN(C(=O)OC4(C)CC4)C5)ncnc32)c1C#N (stereo not drawn) [Compound 22]
The EC50 of the first is lower: less than 50 nM for the first, 50 to 100 nM for the second. The first is the more potent here.

`Cc1nc2c(OC3C4COCC3CN(C(=O)OC3(C)CC3)C4)ncnc2n1-c1ccc(C#N)cc1F` (stereo not drawn) [Compound 42] and `CC1(OC(=O)N2CC3COCC(C2)C3Oc2ncnc3c2[nH]c(=O)n3-c2ccc(C#N)cc2F)CC1` (stereo not drawn) [Compound 41] fall in the same range of EC50: 500 to 1000 nM for the first, 500 to 1000 nM for the second.

`CCCOC(=O)N1CC2COCC(C1)C2Oc1ncnc2c1ccn2-c1ccc(C#N)cc1F` (stereo not drawn) [Compound 4] and `CC(C)OC(=O)N1CC2COCC(C1)C2Oc1ncnc2c1ccn2-c1ccc(C#N)cc1F` (stereo not drawn) [Compound 3] cannot be ordered by EC50: less than 50 nM for the first, less than 50 nM for the second.

`CC(C)(C)OC(=O)N1CC2COCC(C1)C2Oc1ncnc2c1ccn2-c1c(F)cccc1F` (stereo not drawn) [Compound 14] and `CC(C)(C)OC(=O)N1CC2COCC(C1)C2Oc1ncnc2c1ccn2-c1c(F)cc(F)cc1F` (stereo not drawn) [Compound 33] cannot be ordered by EC50: less than 50 nM for the first, less than 50 nM for the second.

`CC(C)(C)OC(=O)N1CC2COCC(C1)C2Oc1ncnc2c1ccn2-c1ccc(C#N)cc1F` (stereo not drawn) [Compound 2] and `CC(C)(C)OC(=O)N1CC2COCC(C1)C2Oc1ncnc2c1ccn2-c1ccc(F)cc1F` (stereo not drawn) [Compound 6] cannot be ordered by EC50: less than 50 nM for the first, less than 50 nM for the second.

`CC(C)(C)OC(=O)N1CC2COCC(C1)C2Oc1ncnc2c1OCCN2c1ccc(C#N)cc1F` (stereo not drawn) [Compound 53] and `CC(C)OC(=O)N1CC2COCC(C1)C2Oc1ncnc2c1OCCN2c1ccc(C#N)cc1F` (stereo not drawn) [Compound 55] fall in the same range of EC50: 100 to 500 nM for the first, 100 to 500 nM for the second.

`Cc1c(F)ccc(-n2ccc3c(OC4C5COCC4CN(C(=O)OC(C)(C)C)C5)ncnc32)c1C#N` (stereo not drawn) [Compound 21] and `Cc1c(F)ccc(-n2ccc3c(OC4C5COCC4CN(C(=O)OC(C)(C)C)C5)ncnc32)c1F` (stereo not drawn) [Compound 17] fall in the same range of EC50: 50 to 100 nM for the first, 50 to 100 nM for the second.

Compared with `CC1(OC(=O)N2CC3COCC(C2)C3Oc2ncnc3c2nnn3-c2ccc(C#N)cc2Cl)CC1` (stereo not drawn) [Compound 52], `CC1(OC(=O)N2CC3COCC(C2)C3Oc2ncnc3c2cnn3-c2ccc(C#N)cc2Cl)CC1` (stereo not drawn) [Compound 40] is lower in EC50: 50 to 100 nM for the first, less than 50 nM for the second. The second is the more potent here.

`CC(C)(C)OC(=O)N1CC2COCC(C1)C2Oc1ncnc2c1nnn2-c1ccc(C#N)cc1Cl` (stereo not drawn) [Compound 51] and `CC(C)OC(=O)N1CC2COCC(C1)C2Oc1ncnc2c1ncn2-c1ccc(C#N)cc1Cl` (stereo not drawn) [Compound 44] fall in the same range of EC50: 100 to 500 nM for the first, 100 to 500 nM for the second.

`CC1(OC(=O)N2CC3COCC(C2)C3Oc2ncnc3c2cnn3-c2ccc(-c3cscn3)cc2F)CC1` (stereo not drawn) [Compound 50] and `CC1(OC(=O)N2CC3COCC(C2)C3Oc2ncnc3c2cnn3-c2ccc(F)cc2F)CC1` (stereo not drawn) [Compound 45] fall in the same range of EC50: 100 to 500 nM for the first, 100 to 500 nM for the second.

`Cc1cccc(-n2ccc3c(OC4C5COCC4CN(C(=O)OC4(C)CC4)C5)ncnc32)c1C#N` (stereo not drawn) [Compound 24] and `Cc1cccc(-n2ccc3c(OC4C5COCC4CN(C(=O)OC(C)(C)C)C5)ncnc32)c1C#N` (stereo not drawn) [Compound 23] fall in the same range of EC50: 50 to 100 nM for the first, 50 to 100 nM for the second.

`CC(C)(C)OC(=O)N1CC2COCC(C1)C2Oc1ncnc2c1ccn2-c1c(F)cc(F)cc1F` (stereo not drawn) [Compound 32] and `Cc1c(F)ccc(-n2ccc3c(OC4C5COCC4CN(C(=O)OC(C)(C)C)C5)ncnc32)c1F` (stereo not drawn) [Compound 16] cannot be ordered by EC50: less than 50 nM for the first, less than 50 nM for the second.

First: Fc1cnc(N2CC3COCC(C2)C3Oc2ncnc3c2ccn3-c2ccc(F)cc2F)nc1 (stereo not drawn) [Compound 12]
Second: CS(=O)(=O)c1ccc(-n2ccc3c(OC4C5COCC4CN(c4ncc(Cl)cn4)C5)ncnc32)c(F)c1 (stereo not drawn) [Compound 27]
The EC50 of the first is higher: 50 to 100 nM for the first, less than 50 nM for the second. The second is the more potent here.

`CC1(OC(=O)N2CC3COCC(C2)C3Oc2ncnc3c2ncn3-c2ccc(Br)cc2F)CC1` (stereo not drawn) [Compound 47] and `CC1(OC(=O)N2CC3COCC(C2)C3Oc2ncnc3c2ccn3-c2ccc(S(C)(=O)=O)cc2F)CC1` (stereo not drawn) [Compound 28] fall in the same range of EC50: 100 to 500 nM for the first, 100 to 500 nM for the second.

`CC(C)(C)OC(=O)N1CC2COCC(C1)C2Oc1ncnc2c1ccn2-c1ccc(S(C)(=O)=O)cc1F` (stereo not drawn) [Compound 25] and `Cc1c(F)ccc(-n2ccc3c(OC4C5COCC4CN(C(=O)OC(C)(C)C)C5)ncnc32)c1C#N` (stereo not drawn) [Compound 20] fall in the same range of EC50: 100 to 500 nM for the first, 100 to 500 nM for the second.

First: CC1(OC(=O)N2CC3COCC(C2)C3Oc2ncnc3c2ccn3-c2c(F)cccc2F)CC1 (stereo not drawn) [Compound 19]
Second: CC(C)(C)OC(=O)N1CC2COCC(C1)C2Oc1ncnc2c1ccn2-c1ccc(S(C)(=O)=O)cc1F (stereo not drawn) [Compound 26]
The EC50 of the first is lower: less than 50 nM for the first, 100 to 500 nM for the second. The first is the more potent here.

First: CC(C)(C)OC(=O)N1CC2COCC(C1)C2Oc1ncnc2c1CCN2c1ccc(F)cc1F (stereo not drawn) [Compound 9]
Second: Fc1ccc(N2CCc3c(OC4C5COCC4CN(c4ncc(Cl)cn4)C5)ncnc32)c(F)c1 (stereo not drawn) [Compound 13]
The EC50 of the first is lower: less than 50 nM for the first, 100 to 500 nM for the second.

Compared with `CS(=O)(=O)c1ccc(-n2cnc3c(OC4C5COCC4CN(c4ncc(Cl)cn4)C5)ncnc32)c(F)c1` (stereo not drawn) [Compound 34], `CC(C)c1noc(N2CC3COCC(C2)C3Oc2ncnc3c2ccn3-c2ccc(F)cc2F)n1` (stereo not drawn) [Compound 29] is lower in EC50: 500 to 1000 nM for the first, 100 to 500 nM for the second.

`CC1(OC(=O)N2CC3COCC(C2)C3Oc2ncnc3c2OCCN3c2ccc(C#N)cc2F)CC1` (stereo not drawn) [Compound 54] and `CC1OC(C)C2CN(C(=O)OC3(C)CC3)CC1C2Oc1ncnc2c1cnn2-c1ccc(C#N)cc1F` (stereo not drawn) [Compound 39] fall in the same range of EC50: 100 to 500 nM for the first, 100 to 500 nM for the second.
